In PMC10692228, “A simple method for developing lysine targeted covalent protein reagents” (Nature Communications, 2023):
One block for each substance: values may come before it.

Legend:
[1] = system: 14-3-3 proteins in A549 lysates; assay: Labeling of 14-3-3 proteins by BODIPY-modified peptides in A549 lysates (SDS-PAGE fluorescence, western blot); format: binding; settings: BODIPY-labeled derivatives of the peptides; 1 µM (peptides 3, 8) or 0.25 µM (peptide 12), lysate […], 25 °C, 1 h or 22 h
Protocol: A549 cells were obtained from biological services of the Weizmann Institute. For experiments in lysates, A549 cells were grown in DMEM + FBS. The cells were washed with PBS, scraped from the plate and centrifuged 200 × g for 5 min. […] Cells were incubated in the lysis buffer and centrifuged at 21,000 × g for 10 min at 4 °C. The protein concentration was estimated using BCA, and the lysate was diluted to 1.9 mg/ml in the lysis buffer. […] Then, 13.3 μl of 4X LDS samples buffer with 20 mM DTT was added and the samples were heated for 10 min at 70 °C. The samples were loaded on Bis-Tris gradient gels (4-20%, Genscript) and run using Tris-MOPS buffer at 60 mA/200 V. […] Images were processed and generated using ImageLab. […] Afterwards the gel was directly imaged in ChemiDoc. page 8: Supplementary Figure 7. Peptide binding selectivity in cell lysates and media. a) Raw images for the western blot experiment depicted in figure 5. Experiments was repeated 3 times. Top row: images for experiment done on A549 lysates. Bottom row: Images from extracellular medium. b) Direct gel imaging for experiment in which 1 μ[…] lysates at the indicated concentrations for 22 hours at 25°C. The same amount of lysate was loaded in each lane (28.5 μg). The intense fluorescence at the bottom comes from unbound peptide.

14-3-3σ = assay: Covalent labeling of 14-3-3σ by peptides, intact protein LC/MS; format: binding, human; settings: 5 µM peptide, 2 µM 14-3-3σ; for 14-3-3σ full peptide adduct (degree of labeling): 25 °C; for degree of labeling of 14-3-3σ: 37 C
Protocol: The LC/MS runs for 14-3-3σ were performed on a Waters ACQUITY UPLC class H instrument, in positive ion mode using electrospray ionization. […] The column was held at 40 °C and the autosampler at 10 °C. […] The run flow was 0.4 mL/min. […] The MS data were collected on a Waters SQD2 detector with an m/z range of 2–3071.98 at a range of 900–1900 m/z. The desolvation temperature was 500 °C with a flow rate of 800 L/h. The voltages used were 1.00 kV for the capillary and 24 V for the cone. MassLynx version 4.2 was used to operate the LCMS and analyze the data. Raw data were processed using openLYNX and deconvoluted using MaxEnt with a range of 28,000: 34,000 Da and a resolution of 1 Da/channel. […] For analysis, 24 μl sample was mixed with 6 μl of 2.4% formic acid in water and then 10 μl were injected to intact protein LCMS.

[2] = system: 14-3-3 proteins in extracellular medium of A549 cells; assay: Detection of 14-3-3 proteins by BODIPY-modified peptides in extracellular medium of A549 cells; format: binding; settings: BODIPY-labeled derivatives; concentrated serum-free medium of A549 cells grown 24 h or 48 h
Protocol: For experiments in medium, after growing the cells they were transferred to DMEM without FBS, followed by incubation for either 24 h or 48 h. After the incubation, 8.5 ml of the medium was filtered through a 0.2 µm filter, concentrated using a centrifugal concentrator (vivaspin, cutoff 8000–10,000 Da) to ~200 µl, and diluted to 8 ml using HEPES 50 mM pH = 7.5, 150 mM NaCl. This was followed by 2 additional rounds of dilution and concentration to ~200 µl. The samples were then diluted to 300 µl with IGEPAL added to 1% as well as protease inhibitors and PhosStop. 38 µl samples from the medium were then incubated with the peptides and analyzed as performed for the lysate, with 15 s exposure for fluorescence and 50 second exposure for chemiluminescence.

[3] = molecular target: human 14-3-3σ with an N-terminal His6-tag (human) (UniProt P31947)
[4] = molecular target: human 14-3-3σ with an N-terminal His6-tag (human) (UniProt P31947); remark: listed apart in the source
[5] = molecular target: human 14-3-3σ with an N-terminal His6-tag (human) (UniProt P31947); remark: listed apart in the source

Sequence of UniProt P31947 (P31947 whole entry): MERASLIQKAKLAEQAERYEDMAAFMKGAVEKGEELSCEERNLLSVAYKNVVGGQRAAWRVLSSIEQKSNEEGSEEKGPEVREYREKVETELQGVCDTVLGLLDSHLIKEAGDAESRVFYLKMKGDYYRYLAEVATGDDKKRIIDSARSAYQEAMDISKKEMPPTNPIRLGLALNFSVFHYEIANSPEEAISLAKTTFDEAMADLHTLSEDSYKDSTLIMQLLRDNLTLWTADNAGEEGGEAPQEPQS

percent covalent labeling after 48 h [3]: 90%
percent covalent labeling within 5 h [4]: 80%
percent covalent labeling (overnight, 200 µM peptide) [5]: 35%
Substance: Peptide 8 (Ac-RAH-(pT)-(mC)-PASLQ-NH2)

percent covalent labeling after 48 h [3]: 100%
percent free 14-3-3σ remaining within 2.5 h [4]: < 5%
percent covalent labeling (overnight, 200 µM peptide) [5]: 57%
Substance: Peptide 11 (Ac-RAH-(pT)-SPAS-(mC)-Q-NH2)

Further lines, the substance ahead of its results:

Substance: Ac-RAH-(pT)-(mC)-PASLQ-NH2 [Peptide 8, Methacrylate phosphopeptide derived from YAP-1 (PDB 3MHR)]
labeling of proteins in A549 lysates [1]: formed two main bands
14-3-3σ full peptide adduct (degree of labeling) (14-3-3σ; intact protein LC/MS, time 0 h): 0
14-3-3σ full peptide adduct (degree of labeling) (14-3-3σ; time 1 h (60 min)): 34.14
14-3-3σ full peptide adduct (degree of labeling) (14-3-3σ; time 2.5 h (150 min)): 55.96
14-3-3σ full peptide adduct (degree of labeling) (14-3-3σ; time 5 h (300 min)): 74.24
14-3-3σ full peptide adduct (degree of labeling) (14-3-3σ; time 24 h (1440 min)): 86.25
degree of labeling of 14-3-3σ (14-3-3σ; LC/MS, time 0 h): 0
degree of labeling of 14-3-3σ (14-3-3σ; time 35 min): 53.08
degree of labeling of 14-3-3σ (14-3-3σ; time 70 min): 70.97
degree of labeling of 14-3-3σ (14-3-3σ; time 1.75 h): 80.85
degree of labeling of 14-3-3σ (14-3-3σ; time 4 h): 93.18
degree of labeling of 14-3-3σ (14-3-3σ; time 8 h): 91.76
increase of the rate of labeling at 37 °C (14-3-3σ; 37 °C versus 25 °C): roughly 4 fold

Substance: Ac-RAH-(pT)-SPASL-X-NH2 [Peptide 12, reference compound]
labeling of proteins in A549 lysates [1]: selectively labeled 14-3-3σ and generated a single fluorescent band
detection of 14-3-3 proteins in extracellular medium [2]: 14-3-3σ was not detected

Substance: Peptide 3 (Ac-RSA-(pT)-(mC)-PSL-NH2)
percent covalent labeling after 48 h [3]: 75%
percent covalent labeling within 5 h [4]: 60%
percent covalent labeling (overnight, 200 µM peptide) [5]: 51%
